Changes are numbered by the printed parent chain. Like-named read-outs stand apart in the source and are kept apart here.
Columns and labels:
OR5K1 L104^3.32A = target: T1, OR5K1 L104^3.32A (Homo sapiens, UniProt Q8NHB7, L104A); assay: cAMP-luminescence concentration-response assay, mutant OR5K1 L104^3.32A in HEK-293 cells; assay type: cell-based; settings: OR5K1 L104^3.32A mutant; mean ± SD, n = 4
T1 construct: The protein-coding region of human OR5K1 (NM_001004736.3); IL-6-HaloTag (from expression plasmid pFN210A) (N); expressed in transfected cells; host or cells: HEK-293
T1 sequence (Q8NHB7 1-308 L104A): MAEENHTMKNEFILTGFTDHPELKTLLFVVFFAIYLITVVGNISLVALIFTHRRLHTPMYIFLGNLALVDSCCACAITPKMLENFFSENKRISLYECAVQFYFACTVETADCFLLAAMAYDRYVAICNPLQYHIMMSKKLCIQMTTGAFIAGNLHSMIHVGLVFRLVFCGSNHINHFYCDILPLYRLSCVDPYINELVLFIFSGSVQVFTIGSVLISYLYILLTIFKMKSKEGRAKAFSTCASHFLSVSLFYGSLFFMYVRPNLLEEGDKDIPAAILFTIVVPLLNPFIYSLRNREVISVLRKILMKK
Method: (§1) Mutants L104^3.32 and L255^6.51 were generated by PCR-based site-directed mutagenesis in two steps. Step one PCR was performed in two amplifications: one with the forward vector-internal primer and the reverse mutation-primer and the other with the forward mutation-primer and the reverse vector-internal primer. Amplification was performed with the touchdown approach described above. Both PCR amplicons were then purified and used as a template for step two. The two overlapping amplicons were annealed using the following touchdown program: denaturation (98 °C, 3 min), ten cycles containing denaturation (98 °C, 30 s), annealing (start 60 °C, 30 s), and extension (72 °C, 2 min). […]
(§2) We utilized HEK-293 cells,[101] a human embryonic kidney cell-line, as a test cell system for the functional expression of ORs.[102] […] The utilized pGloSensor-22F is a genetically engineered luciferase with a cAMP-binding pocket, allowing for measurements of a direct cAMP-dependent luminescence signal. […]
(§3) Concentration–response assays were measured 42 h post-transfection as described previously.[102] […] For luminescence measurements, the GloMax Discover microplate reader (Promega, Madison, USA) was used. After incubation for 50 min in the dark, the basal luminescence signal of each well was recorded thrice. […]

OR5K1 L255^6.51A = target: T2, OR5K1 L255^6.51A (Homo sapiens, UniProt Q8NHB7, L255A); assay: cAMP-luminescence concentration-response assay, mutant OR5K1 L255^6.51A in HEK-293 cells; assay type: cell-based; settings: OR5K1 L255^6.51A mutant; mean ± SD, n = 4
T2 construct: The protein-coding region of human OR5K1 (NM_001004736.3); IL-6-HaloTag (from expression plasmid pFN210A) (N); expressed in transfected cells; host or cells: HEK-293
T2 sequence (Q8NHB7 1-308 L255A): T1 sequence (Q8NHB7 1-308 L104A) with A104L, L255A
Method: as §1, §2, §3

OR5K1 [1] = target: T3, OR5K1 (Homo sapiens, UniProt Q8NHB7); design: method as in PMID 34047404; settings: cited from earlier work; for EC50: OR5K1 agonist activity, data retrieved from the literature
T3 construct: The protein-coding region of human OR5K1 (NM_001004736.3); IL-6-HaloTag (from expression plasmid pFN210A) (N); expressed in transfected cells; host or cells: HEK-293
T3 sequence (Q8NHB7 1-308): T1 sequence (Q8NHB7 1-308 L104A) with A104L

OR5K1 [2] = target: T3, OR5K1; assay: cAMP-luminescence (GloSensor) concentration-response assay, OR5K1 transiently expressed in HEK-293 cells; assay type: cell-based; settings: OR5K1 agonist activity, tested in this work, mean ± SD, n = 4, last tested concentration 300 μM
Method: We utilized HEK-293 cells,[101] a human embryonic kidney cell-line, as a test cell system for the functional expression of ORs.[102] Cells were cultivated at 37 °C, 5% CO2, and 100% humidity in 4.5 g/L D-glucose containing DMEM with 10% fetal bovine serum, 2 mM L-glutamine, 100 U/mL penicillin, and 100 U/mL streptomycin. Cells were cultured in a 96-well format (Nunclon Delta Surface, #136102; Thermo Fisher Scientific, Schwerte, Germany) at 12,000 cells/well overnight. Then, cells were transfected utilizing 0.75 μL/well ViaFect (#E4981, Promega, USA) with the following constructs: 100 ng/well of the respective OR construct, 50 ng/well of chaperone RTP1S,[103] 50 ng/well of the G protein subunit Gαolf,[104],[105] olfactory G protein subunit Gγ13,[106] and 50 ng/well of pGloSensor-22F (Promega, Madison, USA).[107] The utilized pGloSensor-22F is a genetically engineered luciferase with a cAMP-binding pocket, allowing for measurements of a direct cAMP-dependent luminescence signal. All measurements were mock-controlled, i.e. pFN210A without OR was transfected in parallel.
as §3, with “thrice. Then the odorant, serially diluted in the physiological salt buffer with added Pluronic PE-10500 (BASF, Ludwigshafen, Germany), was applied to the cells, and luminescence was measured thrice after 10 min of incubation time.” for “thrice.”
The raw luminescence data obtained from the GloMax Discover microplate reader detection system were analyzed for concentration/response assays by averaging both data points of basal levels and data points after odorant application. For a given luminescence signal, the respective basal level was subtracted, and the now corrected data set was normalized to the maximum amplitude of the reference. […]

CCc1ncc(C)nc1CC [Compound 1, 2,3-Diethyl-5-methylpyrazine]
EC50 (OR5K1 L104^3.32A): 525 ± 92.3 µM
EC50 (OR5K1 L255^6.51A): 478 ± 185 µM
EC50 (OR5K1 [1]): 10.3 ± 1.06 µM

CCc1nc(C)cnc1C [Compound 2, 2-Ethyl-3,6-dimethylpyrazine]
EC50 (OR5K1 [2]; read-out: EC50): 14.8 ± 6.69 µM

C=CCc1ccc(OC)c(OC)c1 [Compound 3, Methyl eugenol]
EC50 (OR5K1 [1]): 62.2 ± 1.45 µM

CCc1nccnc1CC [Compound 4, 2,3-Diethylpyrazine]
EC50 (OR5K1 [1]): 94.4 ± 11.9 µM

CCc1nccnc1OC [Compound 5, 2-Ethyl-3-methoxypyrazine]
EC50 (OR5K1 [1]): 97.4 ± 15.6 µM

Cc1cnc(C)c(C)n1 [Compound 6, 2,3,5-Trimethylpyrazine]
EC50 (OR5K1 [1]): 139 ± 7.08 µM

CCc1nccnc1C [Compound 7, 2-Ethyl-3-methylpyrazine]
EC50 (OR5K1 [1]): 538 ± 96.8 µM

COc1nccnc1C(C)C [Compound 9, 2-Isopropyl-3-methoxypyrazine]
EC50 (OR5K1 [1]): 146 ± 8.83 µM

CCc1nccnc1C(C)=O [Compound 10, 2-Acetyl-3-ethylpyrazine]
EC50 (OR5K1 [1]): 528 ± 167 µM

CC(=O)c1nccnc1C [Compound 11, 2-Acetyl-3-methylpyrazine]
EC50 (OR5K1 [1]): 531 ± 27.6 µM

Cc1cncc(C)n1 [Compound 12, 2,6-Dimethylpyrazine]
EC50 (OR5K1 [1]): 544 ± 19.5 µM

CCc1ncc(C)nc1C [Compound 13, 2-Ethyl-3,5-dimethylpyrazine]
EC50 (OR5K1 [2]): could not be measured to saturation
EC50 (OR5K1 [2]; read-out: EC50): > 300 µM

c1cnccn1 [pyrazine, reference compound]
activation of OR5K1 (OR5K1 [1]): does not activate

— PMC10091413, “Modeling the Orthosteric Binding Site of the G Protein-Coupled Odorant Receptor OR5K1” (Journal of Chemical Information and Modeling, 2023)
